Measurements taken from US20230116703A1, “NOVEL ERGOLINES AND METHODS OF TREATING MOOD DISORDERS” (priority 2021, published 2023).
Like-named read-outs stand apart in the source and are kept apart here.

How the values were obtained:
[1] = molecular target: T1, 5-HT1A receptor (Homo sapiens, UniProt P08908); experiment: cell-based
T1 construct: host or cells: CHO cells
T1 sequence (P08908 1-422): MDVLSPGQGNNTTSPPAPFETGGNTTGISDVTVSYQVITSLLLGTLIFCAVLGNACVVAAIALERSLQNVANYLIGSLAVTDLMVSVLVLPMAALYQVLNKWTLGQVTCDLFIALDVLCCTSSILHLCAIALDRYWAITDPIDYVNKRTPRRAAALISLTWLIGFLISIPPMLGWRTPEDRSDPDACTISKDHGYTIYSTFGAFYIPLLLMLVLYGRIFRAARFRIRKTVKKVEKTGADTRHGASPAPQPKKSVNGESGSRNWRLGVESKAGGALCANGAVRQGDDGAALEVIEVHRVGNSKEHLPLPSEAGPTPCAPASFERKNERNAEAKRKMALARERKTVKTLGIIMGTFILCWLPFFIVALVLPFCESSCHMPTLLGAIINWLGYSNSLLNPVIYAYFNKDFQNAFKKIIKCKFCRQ

[2] = molecular target: T2, 5-HT2B receptor (Homo sapiens, UniProt P41595); experiment: cell-based; conditions: Ca^2+ flux, agonist; read-out: 5-HT2B EC50
T2 construct: host or cells: HEK293

[3] = Metabolic stability in mouse liver microsomes (MLM); format: in vitro ADME; conditions: 0.50 mg protein per mL; for t1/2: MLM (CD-1), 1 μM
Excerpt: MLM Stability Pooled MLM from CD-1 mice (BIOIVT M00501) were used.

[4] = molecular target: T3, 5-HT2A receptor (Homo sapiens, UniProt P28223); experiment: biochemical; format: binding; conditions: 1 nM [^3H]ketanserin, HEK293 stable cell line; read-out: 5-HT2A Receptor Ki (nM) ([^3H]ketanserin)
T3 construct: host or cells: HEK293
Method in brief: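 Binding affinity comes from a [^3H]ketanserin radioligand assay run under literature-adapted conditions.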

[5] = molecular target: T4, human 5-HT2C receptor (Homo sapiens, UniProt P28335); experiment: cell-based; conditions: Ca^2+ flux, agonist
T4 sequence (P28335 33-458): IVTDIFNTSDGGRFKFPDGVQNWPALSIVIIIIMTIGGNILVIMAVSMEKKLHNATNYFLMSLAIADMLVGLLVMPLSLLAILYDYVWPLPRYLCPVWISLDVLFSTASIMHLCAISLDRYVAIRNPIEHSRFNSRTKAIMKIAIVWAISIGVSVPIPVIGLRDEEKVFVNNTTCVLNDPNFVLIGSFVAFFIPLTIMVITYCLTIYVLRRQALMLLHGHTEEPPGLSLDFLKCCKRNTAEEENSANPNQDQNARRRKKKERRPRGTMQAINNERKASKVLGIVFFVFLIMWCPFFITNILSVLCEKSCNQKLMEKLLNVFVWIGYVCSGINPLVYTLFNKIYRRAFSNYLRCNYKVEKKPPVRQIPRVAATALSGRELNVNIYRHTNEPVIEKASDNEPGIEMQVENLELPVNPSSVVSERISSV

[6] = tested on: C57BL/6 mice; experiment: Head twitch response (HTR) in mice; format: in vivo, mouse; conditions: SC; for ED50: 20 min, read-out: ED50 (95% CI); for ED50 / Most Efficacious Dose / Emax (95% CI): mouse HTR; for ED50 / Emax (95% CI): 20 min observation, curve fit, poor in some cases
Method: Agonists of the 5-HT2A receptor are well known to induce this effect in rodents and the potency of this HTR is correlated with hallucinogenic potency in humans.
Animals. Adult male C57BL/6 mice, aged 6-8 weeks (body weight 20-25 g) were used in this experiment. Animals were housed under controlled temperatures and 12-hour light/dark cycles (lights on between 07:00-19:00 h), with ad libitum food and water. This study was carried out in strict accordance with the requirements of the Committee for the Purpose of Control and Supervision of Experiments on Animals (CPCSEA), India. All efforts were made to minimize suffering.
Drugs and Drug Administration. Compound 1 was synthesized as described above. It was administered subcutaneously (SC) dissolved in saline vehicle at a volume of 10 mL/kg. Five doses were tested, with n=6 animals/group. Doses were calculated on the basis of the freebase.
Procedure. Mice were administered one dose of the drug and immediately placed into a small open field for behavioral observation. Animals were observed continuously for 20 mins and the number of head twitches (HTs) were counted by an observer blind to the treatment condition.
Statistical Analysis. The data points shown are the mean±standard error of the mean (SEM). Analysis was performed using GraphPad Prism 6. Curves were fit using a non-linear gaussian distribution to calculate ED50 and Emax values.
Additional disclosed compounds were tested in the mouse head twitch response (HTR) assay according to the procedure described in Example 43. […] Lastly, compounds with much larger benzyl and phenethyl substituents on the amine nitrogen (e.g., 10 and 11) were low efficacy in this assay, consistent with their lower maximal efficacy in the arrestin functional assay (see Example 41).

[7] = Metabolic stability in rat liver microsomes (RLM); conditions: for t1/2: RLM, 0.50 mg protein per mL
[8] = molecular target: T3, 5-HT2A receptor; experiment: cell-based; format: cell-based; conditions: Ca^2+ flux, agonist; read-out: 5-HT2A EC50
[9] = Metabolic stability in human liver microsomes (HLM); format: in vitro ADME; conditions: for t1/2: 1 μM, 0.50 mg protein per mL
Excerpt: HLM Stability. Pooled HLM from adult male and female donors (Corning 452117) were used.

[10] = molecular target: T3, 5-HT2A receptor; experiment: PathHunter beta-arrestin recruitment assay at 5-HT2A; format: cell-based; conditions: for agonist type in arrestin recruitment assay (in words) / Emax: 5-HT2A beta-arrestin
Method: The degree of arrestin bias varied substantially across the other compounds tested as well.
Arrestin Functional Assay at 5-HT2A. Recruitment of beta-arrestin was determined using a PathHunter assay at Eurofins DiscoverX (Fremont, Calif.) according to their standard protocols. PathHunter GPCR beta-arrestin assays take advantage of DiscoverX's proprietary Enzyme Fragment Complementation technology. The GPCR is fused in frame with a small enzyme donor fragment ProLink™ (PK) and co-expressed in cells stably expressing a fusion protein of beta-arrestin and the larger, N-terminal deletion mutant of beta-galactosidase. Activation of the GPCR (5-HT2A receptor in this case) stimulates binding of beta-arrestin to the PK-tagged GPCR and forces complementation of the two enzyme fragments, resulting in the formation of an active beta-galactosidase enzyme. This interaction leads to an increase in enzyme activity that can be measured using chemiluminescent PathHunter Detection Reagents. Briefly, PathHunter cells expressing 5-HT2A receptors were seeded in a volume of 20 μL into 384-well plates and incubated at 37° C. for the appropriate time prior to testing. […] Plates were then imaged on a microplate reader and the agonist activity was calculated using the following formula: % Activity=100%×(mean RLU of test sample−mean RLU of vehicle control)/(mean MAX control ligand−mean RLU of vehicle control), where RLU=relative light units.

[11] = Ca^2+ flux, agonist, read-out: 5-HT1A EC50
[12] = mouse, pooled mouse liver microsomes, pH 7.4, MLM (CD-1)
[13] = both, rat, pooled rat liver microsomes, pH 7.4
[14] = both sexes, human, pooled human liver microsomes, pH 7.4, 0.50 mg protein per mL

T2 sequence (P41595 whole entry): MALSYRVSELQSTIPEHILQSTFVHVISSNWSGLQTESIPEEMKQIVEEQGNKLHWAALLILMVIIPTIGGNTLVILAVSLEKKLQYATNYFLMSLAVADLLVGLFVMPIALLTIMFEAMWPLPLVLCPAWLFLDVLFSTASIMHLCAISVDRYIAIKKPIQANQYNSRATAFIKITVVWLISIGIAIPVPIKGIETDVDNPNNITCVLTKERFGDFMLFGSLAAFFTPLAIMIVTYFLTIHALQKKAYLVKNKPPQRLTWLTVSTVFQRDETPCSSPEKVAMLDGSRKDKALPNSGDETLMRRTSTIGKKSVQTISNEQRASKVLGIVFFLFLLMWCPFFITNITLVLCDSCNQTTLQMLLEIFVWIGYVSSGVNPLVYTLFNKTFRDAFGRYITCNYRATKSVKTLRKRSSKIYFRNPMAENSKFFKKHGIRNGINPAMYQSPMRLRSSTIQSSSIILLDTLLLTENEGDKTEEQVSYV
T3 sequence (P28223 whole entry): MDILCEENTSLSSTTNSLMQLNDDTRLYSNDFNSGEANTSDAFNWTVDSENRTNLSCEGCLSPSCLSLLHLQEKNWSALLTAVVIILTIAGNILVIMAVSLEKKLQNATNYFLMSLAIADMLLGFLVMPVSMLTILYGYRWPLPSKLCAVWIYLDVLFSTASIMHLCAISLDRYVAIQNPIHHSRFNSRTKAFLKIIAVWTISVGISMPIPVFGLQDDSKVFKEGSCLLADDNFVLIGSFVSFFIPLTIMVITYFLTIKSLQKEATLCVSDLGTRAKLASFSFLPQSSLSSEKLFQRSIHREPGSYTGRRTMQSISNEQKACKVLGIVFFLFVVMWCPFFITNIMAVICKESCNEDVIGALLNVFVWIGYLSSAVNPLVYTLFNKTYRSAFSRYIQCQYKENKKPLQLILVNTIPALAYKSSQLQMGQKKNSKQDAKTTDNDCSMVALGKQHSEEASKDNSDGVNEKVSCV

| Structure (SMILES) | EC50 [1, 11] | EC50 [2] | t1/2 [3] | microsomal CLint at 1 μM [3, 12] | Ki [4] | EC50 [5] | ED50 [6] | Most Efficacious Dose [6] | Emax (95% CI) [6] | t1/2 [7] | microsomal CLint at 1 μM [7, 13] | EC50 [8] | t1/2 [9] | microsomal CLint at 1 μM [9, 14] | EC50 [10] | agonist type in arrestin recruitment assay (in words) [10] | Emax [10] | also measured |
| --- | --- | --- | --- | --- | --- | --- | --- | --- | --- | --- | --- | --- | --- | --- | --- | --- | --- | --- |
| CCC[C@@H](C)NC(=O)[C@@H]1C=C2c3cccc4[nH]cc(c34)C[C@H]2N(CCC)C1 [Compound 7, (6aR,9R)—N—((R)-pentan-2-yl)-7-propyl-4,6,6a,7,8,9-hexahydroindolo[4,3-fg]quinoline-9-carboxamide] | 12.8 nM | 364 nM | 0.541 min | 2560 µL/min/mg | 0.85 nM | 1.99 nM | 58.9 mg/kg | 1 mg/kg | 720.4 (???-???) | 1.612 min | 860 µL/min/mg | 13.2 nM | 1.65 min | 840 µL/min/mg | 1.6 nM | full agonists | – | – |
| CCC[C@@H](C)NC(=O)[C@@H]1C=C2c3cccc4[nH]cc(c34)C[C@H]2N(C)C1 [Int17, (6aR,9R)-7-methyl-N—((R)-pentan-2-yl)-4,6,6a,7,8,9-hexahydroindolo[4,3-fg]quinoline-9-carboxamide] | 7.01 nM | 70.8 nM | 8.252 min | 168 µL/min/mg | 0.41 nM | 2.53 nM | 0.00405 mg/kg | 0.32 mg/kg | 4.96 (3.764-6.286) | 27.894 min | 49.7 µL/min/mg | 9.67 nM | 15.865 min | 87.4 µL/min/mg | 1.19 nM | partial agonists | < 60% | # HTR at Most Efficacious Dose ([6]; mouse, head twitches in 20 min): 6.0 |
| CC[C@@H](C)NC(=O)[C@@H]1C=C2c3cccc4[nH]cc(c34)C[C@H]2N(CC)C1 [Compound 5, (6aR,9R)—N—((R)-sec-butyl)-7-ethyl-4,6,6a,7,8,9-hexahydroindolo[4,3-fg]quinoline-9-carboxamide] | 0.96 nM | 35.4 nM | – | 170 µL/min/mg | 2.18 nM | 1.29 nM | 0.0306 mg/kg | 0.32 mg/kg | 15.22 (11.77-19.03) | – | 72 µL/min/mg | 0.718 nM | – | 62.3 µL/min/mg | 1.92 nM | full agonists | – | half-life at 1 μM [3, 12]: 8.1 min; half-life at 1 μM [7, 13]: 19.3 min; half-life at 1 μM [9, 14]: 22.2 min |
| C=CCN1C[C@H](C(=O)N[C@H](C)CC)C=C2c3cccc4[nH]cc(c34)C[C@H]21 [Compound 8, (6aR,9R)-7-allyl-N—((R)-sec-butyl)-4,6,6a,7,8,9-hexahydroindolo[4,3-fg]quinoline-9-carboxamide] | 2.53 nM | 22.2 nM | 3.7 min | 377 µL/min/mg | 2.38 nM | 4.05 nM | 0.0282 mg/kg | 1 mg/kg | 12.03 (9.571-14.68) | 7.7 min | 180 µL/min/mg | 0.678 nM | 7.9 min | 174 µL/min/mg | 1.71 nM | full agonists | – | – |
| CCC(CC)NC(=O)[C@@H]1C=C2c3cccc4[nH]cc(c34)C[C@H]2N(C)C1 [Int14, (6aR,9R)-7-methyl-N-(pentan-3-yl)-4,6,6a,7,8,9-hexahydroindolo[4,3-fg]quinoline-9-carboxamide] | – | > 10000 nM | 6.07 min | 228 µL/min/mg | 0.47 nM | 3.63 nM | 1.47 mg/kg | 1 mg/kg | 21.63 (10.59-???) | 37.988 min | 36.5 µL/min/mg | 15.9 nM | 17.593 min | 78.8 µL/min/mg | 1.48 nM | partial agonists | < 60% | EC50 [1]: 46 nM |
